This note sets out measurements from paper PMC11638965, “Leveraging Dual-Ligase Recruitment to Enhance Protein Degradation via a Heterotrivalent Proteolysis Targeting Chimera” (Journal of the American Chemical Society, 2024).

Holding throughout (format): cell-based
For assay [1], the target named is T1, BRD2 (Homo sapiens, UniProt P25440).
T1 construct: HiBiT, is appended to the N-terminus of endogenous BRD2, BRD3, and BRD4; endogenous in cells
The assay can be described thus: Live cell kinetic HiBiT degradation assay, HiBiT-BRD2 HEK293 cells. Particulars: for DC50: HiBiT-BRD2 CRISPR knock-in HEK293 cells, live cell kinetic degradation, 24 h, read-out: Dmax 50 BRD2; for λmax BRD2 (degradation rate): HiBiT-BRD2 knock-in HEK293 cells. Here is the method: HEK293 HiBiT-BRD2 (LgBiT stable), HEK293 HiBiT-BRD3 (LgBiT stable), and HEK293 HiBiT-BRD4 (LgBiT stable) were created using CRISPR/Cas9 to insert at HiBiT tag at the N-terminal genomic loci of BRD2, BRD3, or BRD4 in a cell line stably expressing LgBiT protein as described previously.[23]
For kinetic degradation experiments, HEK293 HiBiT-BRD2, 3, or 4 (LgBiT stable) cells and HEK293 HiBiT-BRD4 (LgBiT) CRBN KO and VHL KO cells were plated at 20,000 cells/well in DMEM +10% FBS in white 96-well tissue culture plates and allowed to adhere overnight. The next day, media was removed and 90 μL of prewarmed CO2-independent medium (Gibco) containing Endurazine (Promega) at a 1:100 dilution from stock was added. Plates were incubated at 37 °C for 3 h to allow luminescence to equilibrate. A threefold dilution series of each PROTAC at 10x the desired final concentration was prepared (with the amount of DMSO in each treatment condition kept constant). After luminescence equilibration, a preread luminescence measurement was taken (prior to compound addition) to allow for baseline normalization to account for possible plating differences. Cells were then treated with 10 μL of the prepared PROTAC dilution series (in triplicate or quadruplicate). Treated plates were placed in a GloMax Discover luminometer (Promega) prewarmed to 37 °C and luminescence measurements were obtained every 7 min for 24 h. Kinetic degradation plots were obtained by first normalizing time course luminescence readings in each well to the preread measurement, then to the average value of the DMSO only control at each time point. Data was analyzed using GraphPad Prism (version 8) and excel. Dmax values were identified as the lowest luminescence reading in each well. Rate constant values were calculated using a one phase exponential decay Y = (Y0-Plateau) e(K*^X) + Plateau using Prism (Y0 constrained to 1). Dmax 50 values were calculated by plotting Dmax as a function of concentration, then fitting plots using the following equation: [drawing 1] to determine IC50.
Background: The HiBiT peptide binds its large partner to form an active luciferase.

Assay [2] concerns the target CRBN (Homo sapiens, UniProt Q96SW2). The assay can be described thus: Western blot dose-response degradation in HEK293 cells. Also noted: Western blot data for BET, CRBN and VHL protein levels; endogenous in cells; host or cells: HEK293 (ATCC). Particulars: for DC50: HEK293 cells, 6 h, Western blot, mean ± S.E.M. of three experiments, values marked b mean ± S.D. of two. On the procedure: (§1) HEK293 cells were obtained from ATCC. HEK293 was cultured in DMEM supplemented with 10% (v/v) fetal bovine serum (FBS), 1% […] and 1% (v/v) penicillin/streptomycin (pen/strep) at 37 °C, 5% CO2, and 95% humidity.
(§2) HEK293 cells were plated at a density of 5 × 10^5 cells per well of a six well plate a day prior to initiation of the experiment. Compounds were dissolved to a 10 mM concentrated stock solution in DMSO from which the compounds were further diluted to a working concentration range of 1 μM to 100 pM in DMEM and was subsequently added to cells at the initiation of the experiment. An additional vehicle control was added to cells alongside compound treatments. Cells were left to incubate with compound for 6 h at 37 °C, 5% CO2, and 95% humidity. Cells were then subsequently washed twice with PBS before being harvested in RIPA buffer supplemented with protease inhibitor cocktail and Benzonase Nuclease before being store at −20 °C.
(§3) Protein concentration was determined using the BCA assay. Samples were then prepared in LDS buffer containing 5% 1 M DTT and subsequently loaded onto NuPAGE 4–12% Bis-Tris Midi gels, followed by the transfer of the proteins onto nitrocellulose membranes. The membranes were blocked for 1 h prior to incubation with the primary antibodies using 5% Milk TBST. Membranes were incubated at 4 °C in either BRD4(Ab128874), BRD3(Ab50818), BRD2(Ab139690), VHL(CST#68547) and CRBN(CST#71810) primary antibody overnight. Following overnight incubation, the membranes were incubated with complementary IRDye 800CW secondary antibody and a hFAB Rhodamine Anti-Tubulin Primary Antibody (loading control) for 1 h and then imaged with a Bio-Rad imager. All Western blots were analyzed for band intensities using Image Lab (Bio-Rad). The data extracted from these blots were then plotted and analyzed using Prism (v. 10.2.2, GraphPad). Linear regression curve fitting was used to calculate pDC50 values. The standard deviation of the pDC50 was calculated for all compounds that had two independent repeats and the standard error of the mean calculated for all compounds that had three independent repeats. All Western blotting figures were developed in Adobe illustrator.
A general note: A western blot detects proteins with antibodies after separation by electrophoresis.

Assay [3] concerns the target T2, BRD4^Short (Homo sapiens, UniProt O60885).
T2 construct: Western blot data for BET, CRBN and VHL protein levels; endogenous in cells; host or cells: HEK293 (ATCC)
The description is as above. The conditions noted are these: 6 h, mean ± S.E.M. of three experiments, values marked b mean ± S.D. of two. On the procedure:
as §1, §2, §3

Assay [4] has as its target T3, BRD3 (Homo sapiens, UniProt Q15059).
T3 construct: HiBiT, is appended to the N-terminus of endogenous BRD2, BRD3, and BRD4; endogenous in cells
The description is as above. Particulars: 6 h, mean ± S.E.M. of three experiments, values marked b mean ± S.D. of two. On the procedure: as §1, §2, §3

Assay [5] concerns the target T1, BRD2. Described as above. Particulars: 6 h; for DC50: mean ± S.E.M. of three experiments, values marked b mean ± S.D. of two. On the procedure: as §1, §2, §3
For assay [6], the target named is T4, BRD4^Long (Homo sapiens, UniProt O60885).
T4 construct: Western blot data for BET, CRBN and VHL protein levels; endogenous in cells; host or cells: HEK293 (ATCC)
Described as above. The conditions noted are these: HEK293 cells, 6 h, Western blot; mean ± S.E.M. of three experiments, values marked b mean ± S.D. of two. On the procedure:
as §1, §2, §3

Several values for one entry are separate records, joined by “and”; a condition that tells them apart may be missing. Identical values can stand only once.

CRBN, sequence (Q96SW2 whole entry): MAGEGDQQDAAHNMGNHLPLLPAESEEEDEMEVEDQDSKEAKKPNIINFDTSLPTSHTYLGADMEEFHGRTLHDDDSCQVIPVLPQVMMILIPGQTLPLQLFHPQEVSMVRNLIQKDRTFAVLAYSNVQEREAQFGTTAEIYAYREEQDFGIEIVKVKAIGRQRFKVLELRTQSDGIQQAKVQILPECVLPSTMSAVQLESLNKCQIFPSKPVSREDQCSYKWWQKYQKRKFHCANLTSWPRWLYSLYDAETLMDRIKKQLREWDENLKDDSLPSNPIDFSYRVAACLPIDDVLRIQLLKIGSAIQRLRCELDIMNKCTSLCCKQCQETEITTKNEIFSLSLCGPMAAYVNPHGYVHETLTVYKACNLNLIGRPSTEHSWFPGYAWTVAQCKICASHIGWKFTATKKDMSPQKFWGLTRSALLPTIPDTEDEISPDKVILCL
T1 sequence (P25440 whole entry): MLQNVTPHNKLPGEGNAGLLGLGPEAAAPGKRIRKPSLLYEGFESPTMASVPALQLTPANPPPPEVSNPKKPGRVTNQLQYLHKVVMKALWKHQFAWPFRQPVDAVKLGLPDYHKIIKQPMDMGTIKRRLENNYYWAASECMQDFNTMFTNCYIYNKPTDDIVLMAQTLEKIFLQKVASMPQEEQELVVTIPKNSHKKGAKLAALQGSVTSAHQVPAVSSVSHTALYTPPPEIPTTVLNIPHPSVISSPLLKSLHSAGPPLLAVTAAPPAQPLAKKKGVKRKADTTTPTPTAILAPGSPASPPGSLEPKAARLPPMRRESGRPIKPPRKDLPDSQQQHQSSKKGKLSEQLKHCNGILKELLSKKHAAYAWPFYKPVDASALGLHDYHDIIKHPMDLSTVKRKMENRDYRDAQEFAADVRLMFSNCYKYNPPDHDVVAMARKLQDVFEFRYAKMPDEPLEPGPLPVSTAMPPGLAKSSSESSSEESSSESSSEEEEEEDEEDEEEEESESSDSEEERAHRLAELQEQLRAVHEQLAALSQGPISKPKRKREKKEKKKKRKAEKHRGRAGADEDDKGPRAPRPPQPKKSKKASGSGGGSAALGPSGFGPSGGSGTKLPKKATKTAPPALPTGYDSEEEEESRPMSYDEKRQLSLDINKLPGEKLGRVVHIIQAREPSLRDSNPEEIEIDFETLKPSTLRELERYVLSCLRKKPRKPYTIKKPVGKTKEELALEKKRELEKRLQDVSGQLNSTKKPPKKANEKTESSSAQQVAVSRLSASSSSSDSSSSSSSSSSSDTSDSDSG
T3 sequence (Q15059 whole entry): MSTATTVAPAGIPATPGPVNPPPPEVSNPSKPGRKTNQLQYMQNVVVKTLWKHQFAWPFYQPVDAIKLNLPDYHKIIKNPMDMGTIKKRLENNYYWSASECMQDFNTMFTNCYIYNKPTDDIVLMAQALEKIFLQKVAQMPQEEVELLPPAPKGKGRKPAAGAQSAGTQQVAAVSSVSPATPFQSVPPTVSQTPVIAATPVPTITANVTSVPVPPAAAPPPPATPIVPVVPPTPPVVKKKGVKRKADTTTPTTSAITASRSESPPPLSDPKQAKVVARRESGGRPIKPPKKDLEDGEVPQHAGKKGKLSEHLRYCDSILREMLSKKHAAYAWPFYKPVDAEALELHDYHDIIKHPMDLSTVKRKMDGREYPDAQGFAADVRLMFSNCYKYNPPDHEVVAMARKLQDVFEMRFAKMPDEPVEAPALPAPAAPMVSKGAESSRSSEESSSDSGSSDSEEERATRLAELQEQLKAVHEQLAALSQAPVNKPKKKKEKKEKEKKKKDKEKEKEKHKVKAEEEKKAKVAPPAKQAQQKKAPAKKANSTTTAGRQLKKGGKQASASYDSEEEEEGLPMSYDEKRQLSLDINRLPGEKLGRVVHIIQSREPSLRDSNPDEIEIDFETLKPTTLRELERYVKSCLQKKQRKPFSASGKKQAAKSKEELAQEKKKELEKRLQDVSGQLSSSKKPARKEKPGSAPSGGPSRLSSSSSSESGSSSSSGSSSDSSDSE

As to `Cc1ncsc1-c1ccc(CNC(=O)[C@@H]2C[C@@H](O)CN2C(=O)[C@@H](NC(=O)COCC(C)(COCCOCCOCCNc2cc3c(cc2F)C(=O)N(C2CCC(=O)NC2=O)C3=O)COCCOCCOC(=O)C[C@@H]2N=C(c3ccc(Cl)cc3)c3c(sc(C)c3C)-n3c(C)nnc32)C(C)(C)C)cc1` (mixture of isomers) [AB3065 (28), (14S)-8-((2-(2-(2-((2-(2,6-dioxopiperidin-3-yl)-6-fluoro-1,3-dioxoisoindolin-5-yl)amino)ethoxy)ethoxy)ethoxy)methyl)-14-((2S,4R)-4-hydroxy-2-((4-(4-methylthiazol-5-yl)benzyl)carbamoyl)pyrrolidine-1-carbonyl)-8,15,15-trimethyl-12-oxo-3,6,10-trioxa-13-azahexadecyl 2-((S)-4-(4-chlorophenyl)-2,3,9-trimethyl-6H-thieno[3,2-f][1,2,4]triazolo[4,3-a][1,4]diazepin-6-yl)acetate], the DC50 in assay [1] is 23 nM; in assay [2] it was 310 ± 200 nM; in assay [3], 12 ± 5.8 nM; in assay [4], 14 ± 7.5 nM; in assay [5], 21 ± 5.4 nM; in assay [6], 10 ± 4.4 nM. The “λmax BRD2 (degradation rate)” value in assay [1] came to 1.46 h⁻¹.
On to `Cc1ncsc1-c1ccc(CNC(=O)[C@@H]2C[C@@H](O)CN2C(=O)[C@@H](NC(=O)COCC(C)(COCCOCCOCCNc2cccc3c2C(=O)N(C2CCC(=O)NC2=O)C3=O)COCCOCCOC(=O)C[C@@H]2N=C(c3ccc(Cl)cc3)c3c(sc(C)c3C)-n3c(C)nnc32)C(C)(C)C)cc1` (mixture of isomers) [AB3064 (25), (14S)-8-((2-(2-(2-((2-(2,6-dioxopiperidin-3-yl)-1,3-dioxoisoindolin-4-yl)amino)ethoxy)ethoxy)ethoxy)methyl)-14-((2S,4R)-4-hydroxy-2-((4-(4-methylthiazol-5-yl)benzyl)carbamoyl)pyrrolidine-1-carbonyl)-8,15,15-trimethyl-12-oxo-3,6,10-trioxa-13-azahexadecyl 2-((S)-4-(4-chlorophenyl)-2,3,9-trimethyl-6H-thieno[3,2-f][1,2,4]triazolo[4,3-a][1,4]diazepin-6-yl)acetate], for which the DC50 in assay [1] stood at 74 nM; in assay [2], 480 ± 370 nM; in assay [3], 18 ± 3.3 nM; in assay [4], 28 ± 0.8 nM; in assay [5], 75 ± 20 nM; in assay [6], 12 ± 2.4 nM. Further, the “λmax BRD2 (degradation rate)” value in assay [1] was 1.34 h⁻¹.
`Cc1ncsc1-c1ccc(CNC(=O)[C@@H]2C[C@@H](O)CN2C(=O)[C@@H](NC(=O)COCC(C)(COCCOCCOCCNc2cc3c(cc2F)C(=O)N(C2CCC(=O)NC2=O)C3=O)COCCOCCOCCOC(=O)C[C@@H]2N=C(c3ccc(Cl)cc3)c3c(sc(C)c3C)-n3c(C)nnc32)C(C)(C)C)cc1` (mixture of isomers) [AB3063 (26), (17S)-11-((2-(2-(2-((2-(2,6-dioxopiperidin-3-yl)-6-fluoro-1,3-dioxoisoindolin-5-yl)amino)ethoxy)ethoxy)ethoxy)methyl)-17-((2S,4R)-4-hydroxy-2-((4-(4-methylthiazol-5-yl)benzyl)carbamoyl)pyrrolidine-1-carbonyl)-11,18,18-trimethyl-15-oxo-3,6,9,13-tetraoxa-16-azanonadecyl 2-((S)-4-(4-chlorophenyl)-2,3,9-trimethyl-6H-thieno[3,2-f][1,2,4]triazolo[4,3-a][1,4]diazepin-6-yl)acetate]: the DC50 was 4.7 nM in assay [1]; 200 ± 31 nM in assay [2]; 3.2 ± 0.9 nM in assay [3]; 4.8 ± 2.4 nM in assay [4]; 14 ± 4.6 nM in assay [5]; 0.76 ± 0.1 nM in assay [6]. In addition, the “λmax BRD2 (degradation rate)” value in assay [1] came out at 1.72 h⁻¹.
For the compound `Cc1ncsc1-c1ccc(CNC(=O)[C@@H]2C[C@@H](O)CN2C(=O)[C@@H](NC(=O)COCC(C)(COCCOCCOCCOC(=O)C[C@@H]2N=C(c3ccc(Cl)cc3)c3c(sc(C)c3C)-n3c(C)nnc32)COCCOCCOCCN2CCN(c3cccc4c3C(=O)N(C3CCC(=O)NC3=O)C4=O)CC2)C(C)(C)C)cc1` (mixture of isomers) [AB3029 (31), (17S)-11-((2-(2-(2-(4-(2-(2,6-dioxopiperidin-3-yl)-1,3-dioxoisoindolin-4-yl)piperazin-1-yl)ethoxy)ethoxy)ethoxy)methyl)-17-((2S,4R)-4-hydroxy-2-((4-(4-methylthiazol-5-yl)benzyl)carbamoyl)pyrrolidine-1-carbonyl)-11,18,18-trimethyl-15-oxo-3,6,9,13-tetraoxa-16-azanonadecyl 2-((S)-4-(4-chlorophenyl)-2,3,9-trimethyl-6H-thieno[3,2-f][1,2,4]triazolo[4,3-a][1,4]diazepin-6-yl)acetate], in assay [1], the “λmax BRD2 (degradation rate)” value is 1.90 h⁻¹ and 1.9 h⁻¹. Further, the “fold weaker degradation of CRBN compared with aniline tethered matched pair” value in assay [2] (31 and 32 compared with 23 and 27, respectively, DC50, HEK293 Western blot) amounted to 2.9 fold. Moreover, the DC50 turned out to be 580 ± 240 nM in assay [2]; 15 ± 2.4 nM in assay [3]; 14 ± 2.9 nM in assay [4]; 52 ± 9.4 nM in assay [5]; 14 ± 3.9 nM in assay [6].
Turning to `Cc1ncsc1-c1ccc(CNC(=O)[C@@H]2C[C@@H](O)CN2C(=O)[C@@H](NC(=O)COCC(COCCOCCOCCNc2cc3c(cc2F)C(=O)N(C2CCC(=O)NC2=O)C3=O)(COCCOCCOCCOC(=O)C[C@@H]2N=C(c3ccc(Cl)cc3)c3c(sc(C)c3C)-n3c(C)nnc32)COCCOCCOCCOC(=O)C[C@@H]2N=C(c3ccc(Cl)cc3)c3c(sc(C)c3C)-n3c(C)nnc32)C(C)(C)C)cc1` (mixture of isomers) [AB3124 (86)], the DC50 in assay [2] came to 113 ± 3.2 nM; in assay [3], 2.9 ± 0.3 nM; in assay [4], 3.5 ± 0.3 nM; in assay [5] it was 1 ± 0.2 nM; in assay [6], 2.2 ± 0.1 nM. In assay [5], the maximal degradation (Dmax) is approximately 80%. Also, the “onset of the hook effect, BRD2” value in assay [5] stood at 1 µM.

The Dmax is the largest share of the target that was removed. Read a high Dmax as deep degradation.
